# From US8486996B2, “Aroylfuranes and aroylthiophenes” (Basilea Pharmaceutica AG, priority 2006, dated 2013)
# pEC50, pIC50: −log10 of the molar value. Where two headings read alike, the source gives them in different places.
# Assays:
# Format in all cases: cell-based
# [1] = system: tumor cells; experiment: Hoechst 33342 nuclear staining (48 h read-out)
# In short: (§1)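 Adherent cells pre-spread 24 h before dosing, suspension cells dosed at seeding; compounds at 0.001 μM-10 μM final, 48 h at culture conditions. Hoechst 33342 (2-5 μg/ml) added for 30 min, then fluorescence microscopy scoring of apoptotic nuclear fraction and apoptosis-specific morphology, reported as scores A-D.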
# [2] = Hoechst 33342 nuclear staining (48 h read-out)
# In short: as §1
# [3] = system: tumor cells; experiment: Mitochondrial membrane potential, JC-1 (read-out 48 h); conditions: JC-1, 48 h
# In short: (§2)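 Tumor cells were treated with test compounds (adherent cells after 24 h of attachment, suspension cells immediately), medium holding up to 5% DMSO. After 48 h, JC-1 (2-5 μg/ml in added medium) was applied for 30 min. Fluorescence microscopy (FITC/TRITC filters) scored the fraction of cells with dissipated mitochondrial membrane potential as categories A-D.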
# [4] = as above; conditions: PBL, JC-1, 48 h
# In short: as §2
# [5] = system: tumor cells; experiment: MTS proliferation assay (72 h read-out)
# In short: (§3)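 Tumour cells (1.5×10^3–10^4 per well) were seeded 24 h before compound addition, then exposed to 0.001–10 μM final compound for 72 h under culture conditions. MTS reagent was added for a further 3 h, absorbance was read at 492 nm, and results were binned into scores A–D.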
# [6] = MTS proliferation assay (72 h read-out); conditions: MRC5 cells
# In short: as §3
# [7] = HeLa cells, read-out: Hoechst 33342 nuclear staining EC50, HeLa
# [8] = Jily cells, read-out: Hoechst 33342 nuclear staining EC50, Jily
# [9] = Jurkat cells, read-out: Hoechst 33342 nuclear staining EC50, Jurkat
# [10] = MRC5 cells, read-out: Hoechst 33342 nuclear staining EC50, MRC5
# [11] = PBL, read-out: Hoechst 33342 nuclear staining EC50, PBL
# [12] = HeLa cells, read-out: Mitochondrial membrane potential (read-out 48 h) HeLa
# [13] = Jily cells, read-out: Mitochondrial membrane potential (read-out 48 h) Jily
# [14] = Jurkat cells, read-out: Mitochondrial membrane potential (read-out 48 h) Jurkat
# [15] = MCF7 cells, read-out: Mitochondrial membrane potential (read-out 48 h) MCF7
# [16] = HT1080 cells, read-out: MTS proliferation assay IC50, HT1080
# [17] = HeLa cells, read-out: MTS proliferation assay IC50, HeLa
# [18] = Jily cells, read-out: MTS proliferation assay IC50, Jily
# [19] = Jurkat cells, read-out: MTS proliferation assay IC50, Jurkat
"pEC50 [1, 7]","pEC50 [1, 8]","pEC50 [1, 9]","pEC50 [2, 11]","pEC50 [3, 12]","pEC50 [3, 13]","pEC50 [3, 14]","pEC50 [3, 15]",pEC50 [4],"pIC50 [5, 16]","pIC50 [5, 17]","pIC50 [5, 18]","pIC50 [5, 19]",SMILES,"pEC50 [2, 10]",pIC50 [6]
6.00 to 7.00,6.00 to 7.00,6.00 to 7.00,< 6.00,< 6.00,6.00 to 7.00,6.00 to 7.00,< 6.00,< 6.00,6.00 to 7.00,6.00 to 7.00,6.00 to 7.00,,CCOc1ccc(F)cc1C(=O)c1cc2cc(OCOC)ccc2o1 [Example 69],< 6.00,6.00 to 7.00
6.00 to 7.00,6.00 to 7.00,6.00 to 7.00,< 6.00,< 6.00,6.00 to 7.00,6.00 to 7.00,< 6.00,< 6.00,6.00 to 7.00,6.00 to 7.00,6.00 to 7.00,,CCOc1ccc(F)cc1C(=O)c1cc2cc(OCCOC)ccc2o1 [Example 70],6.00 to 7.00,6.00 to 7.00
< 6.00,< 6.00,< 6.00,< 6.00,< 6.00,< 6.00,< 6.00,< 6.00,< 6.00,< 6.00,< 6.00,< 6.00,,CCOc1ccc(F)cc1C(=O)c1cc2cc(OCCN(C)C)ccc2o1 [Example 71],< 6.00,< 6.00
6.00 to 7.00,6.00 to 7.00,6.00 to 7.00,< 6.00,6.00 to 7.00,6.00 to 7.00,6.00 to 7.00,< 6.00,< 6.00,6.00 to 7.00,6.00 to 7.00,6.00 to 7.00,,CCOc1ccc(F)cc1C(=O)c1cc2cc(Oc3ccccn3)ccc2o1 [Example 73],6.00 to 7.00,6.00 to 7.00
< 6.00,< 6.00,< 6.00,< 6.00,< 6.00,< 6.00,< 6.00,< 6.00,< 6.00,< 6.00,< 6.00,< 6.00,,CCOc1ccc(F)cc1C(=O)c1cc2cc(CN(CC)CC)ccc2o1 [Example 74],< 6.00,< 6.00
< 6.00,< 6.00,< 6.00,< 6.00,< 6.00,< 6.00,< 6.00,< 6.00,< 6.00,< 6.00,< 6.00,< 6.00,,CCNc1ncccc1C(=O)c1oc2ccc(Cl)cc2c1N [Example 76],< 6.00,< 6.00
< 6.00,6.00 to 7.00,6.00 to 7.00,< 6.00,< 6.00,6.00 to 7.00,6.00 to 7.00,< 6.00,< 6.00,< 6.00,< 6.00,6.00 to 7.00,,CN(C)c1ncccc1C(=O)c1oc2ccc(Cl)cc2c1N [Example 77],< 6.00,< 6.00
< 6.00,< 6.00,6.00 to 7.00,< 6.00,< 6.00,6.00 to 7.00,6.00 to 7.00,< 6.00,< 6.00,6.00 to 7.00,6.00 to 7.00,6.00 to 7.00,6.00 to 7.00,Nc1c(C(=O)c2cccnc2N2CCCC2)oc2ccc(Cl)cc12 [Example 79],< 6.00,< 6.00
6.00 to 7.00,6.00 to 7.00,6.00 to 7.00,< 6.00,< 6.00,6.00 to 7.00,7.00 to 8.00,< 6.00,< 6.00,7.00 to 8.00,6.00 to 7.00,6.00 to 7.00,7.00 to 8.00,CCN(CC)c1ncccc1C(=O)c1oc2ccc(Cl)cc2c1N [Example 81],< 6.00,6.00 to 7.00
6.00 to 7.00,6.00 to 7.00,7.00 to 8.00,< 6.00,6.00 to 7.00,6.00 to 7.00,7.00 to 8.00,6.00 to 7.00,< 6.00,7.00 to 8.00,6.00 to 7.00,7.00 to 8.00,7.00 to 8.00,CC1CN(c2ncccc2C(=O)c2oc3ccc(Cl)cc3c2N)CC(C)O1 (stereo not shown) [Example 83],6.00 to 7.00,7.00 to 8.00
< 6.00,< 6.00,< 6.00,< 6.00,< 6.00,< 6.00,< 6.00,< 6.00,< 6.00,< 6.00,< 6.00,< 6.00,< 6.00,Nc1c(C(=O)c2cccnc2N2CCCNCC2)oc2ccc(Cl)cc12 [Example 84],< 6.00,< 6.00
< 6.00,6.00 to 7.00,6.00 to 7.00,< 6.00,< 6.00,6.00 to 7.00,6.00 to 7.00,< 6.00,< 6.00,< 6.00,< 6.00,6.00 to 7.00,6.00 to 7.00,CN1CCN(c2ncccc2C(=O)c2oc3ccc(Cl)cc3c2N)CC1 [Example 85],< 6.00,< 6.00
< 6.00,< 6.00,< 6.00,< 6.00,< 6.00,< 6.00,< 6.00,< 6.00,< 6.00,< 6.00,< 6.00,6.00 to 7.00,6.00 to 7.00,Nc1c(C(=O)c2cccnc2N2CCC(O)CC2)oc2ccc(Cl)cc12 [Example 86],< 6.00,< 6.00
6.00 to 7.00,6.00 to 7.00,6.00 to 7.00,< 6.00,6.00 to 7.00,6.00 to 7.00,6.00 to 7.00,6.00 to 7.00,< 6.00,7.00 to 8.00,7.00 to 8.00,7.00 to 8.00,> 8.00,COc1ccc2oc(C(=O)c3cccnc3N3CCCC(C)C3)cc2c1 (stereo not shown) [Example 87],6.00 to 7.00,7.00 to 8.00
6.00 to 7.00,6.00 to 7.00,6.00 to 7.00,< 6.00,7.00 to 8.00,7.00 to 8.00,7.00 to 8.00,7.00 to 8.00,< 6.00,> 8.00,7.00 to 8.00,> 8.00,> 8.00,COc1ccc2oc(C(=O)c3cccnc3N3CC=CCC3)cc2c1 [Example 88],6.00 to 7.00,> 8.00

SMILES,"pEC50 [1, 7]","pEC50 [1, 8]","pEC50 [1, 9]","pEC50 [2, 11]","pEC50 [3, 12]","pEC50 [3, 13]","pEC50 [3, 14]","pEC50 [3, 15]",pEC50 [4],"pIC50 [5, 16]","pIC50 [5, 17]","pIC50 [5, 18]","pIC50 [5, 19]","pEC50 [2, 10]",pIC50 [6]
CCOc1ccc(F)cc1C(=O)c1cc2cc(OC(=O)N(C)C)ccc2o1 [Example 72],< 6.00,6.00 to 7.00,6.00 to 7.00,< 6.00,< 6.00,6.00 to 7.00,6.00 to 7.00,< 6.00,< 6.00,6.00 to 7.00,6.00 to 7.00,6.00 to 7.00,,< 6.00,6.00 to 7.00
